Test results reported in patent EP0400330A1, “Oxidation hair dyes” (Wella Aktiengesellschaft, priority 1989, dated 1990).

Tests used:
[1] = test system: Salmonella typhimurium-Stämmen TA97, TA98 und TA100; test: Ames test of dyed hair strands; assay type: cell-based; design: key: +: mutagen; (+): schwach mutagen; -: nicht mutagen; settings: hair dyed 30 Minuten at 40 Grad Celsius, in Anwesenheit von S9-Mix
Source text: Versuchsbedingungen: Haarsträhnchen aus 30-50 Haaren werden mit einem Mittel nach Beispiel 1, bei dem die Kupplersubstanz jeweils im äquimolaren Verhältnis zur Entwicklersubstanz enthalten war, getränkt. Die Strähnen wurden anschließend 30 Minuten lang bei 40 Grad Celsius im Klimaschrank aufbewahrt, sodann gründlich mit Wasser gespült und schließlich getrocknet. Die so gefärbten Haar wurden nun im 2,5 cm lange Stücke geschnitten und nach der Methodik von B.N. Ames an Salmonella typhimurium-Stämmen TA97, TA98 und TA100 in Anwesenheit von S9-Mix geprüft.

[2] = test system: Salmonella typhimurium; test: Ames test of hair dye solutions under oxidative conditions; settings: hair dye solution containing the developer substance, unter oxidativen Bedingungen
[3] = Mutagenicity test battery (Ames, CA-Test, Mouse Lymphoma Test, SCE-Test), individual test not specified; assay type: cell-based; settings: in some of the tests Ames, not said which
Source text: (§1) Der große und überraschende technische Fortschritt, der bei der Verwendung von 2-(2,5-Diaminophenyl)ethanol mit den vorstehend genannten Kupplersubstanzen erzielt werden kann, liegt vielmehr in den physiologischen Eigenschaften begründet.

[4] = Sensitising property (test not described)
Source text: Das 2-(2,5-Diaminophenyl)ethanol wird seit einiger Zeit als Bestandteil von Oxidationshaarfärbemitteln in der Patentliteratur erwähnt. Als möglicher Bestandteil von Oxidationshaarfärbemitteln ist es zum Beispiel in der eigenen europäischen Offenlegungsschrift 0 166 155 sowie in den eigenen deutschen Offenlegungsschriften 3 625 916, 3 627 398 und 3 706 565 sowie auch in der DE-OS 3 545 371 aufgeführt. Ferner fällt das 2-(2,5-Diaminophenyl)ethanol unter eine allgemeine Formel für 1-Hydroxyalkyl-2,5-diaminobenzolverbindungen, welche als Entwicklersubstanzen für Oxidationshaarfärbemittel in der eigenen europäischen Offenlegungsschrift 0 007 537 empfohlen werden. Die dort mehrfach konkret genannte Verbindung 1-Hydroxymethyl-2,5-diaminobenzol (2,5Diaminobenzylalkohol) hat sich jedoch als sensibilisierend erwiesen. Die ausgezeichnete Eignung der Entwicklersubstanz 2-(2,5-Diaminophenyl)-ethanol in Kombination mit den vorstehend genannten Kupplersubstanzen zur Lösung der gestellten Aufgabe wurde bisher nicht erkannt. Dementsprechend sind die erfindungsgemäßen EntwicklersubstanzKupplersubstanz-Kombinationen in keiner dieser Druckschriften beschrieben.
Die konkrete Darstellung des 2-(2,5-Diaminophenyl)ethanols ist bisher ebenfalls weder beschrieben noch hat diese Entwicklersubstanz Eingang in die Haarfärbepraxis gefunden. […]

[5] = test system: Mouse Lymphoma; test: Mouse Lymphoma Test (point mutation in vitro); assay type: cell-based; settings: Punktmutation in vitro
Source text: as §1

[6] = test system: Salmonella typhimurium; test: Ames mutagenicity test of the developer substance; assay type: cell-based
Source text: as §1

[7] = test system: CHO-Zellen; test: Chromosome aberration test in vitro (CA-Test); assay type: cell-based
Source text: as §1

[8] = Sister-Chromatide-Exchange-Test (SCE-Test); assay type: cell-based
Source text: as §1

[9] = Kupplersubstanz 2-Methylresorcin, äquimolar to the developer
[10] = Kupplersubstanz 3,4-Methylendioxyphenol, äquimolar to the developer
[11] = Kupplersubstanz 3-Aminophenol, äquimolar to the developer
[12] = Kupplersubstanz Resorcin, äquimolar to the developer

Structure (SMILES): Nc1ccc(N)cc1 [p-Phenylendiamin, reference compound]
- Amesteste von gefärbten Haarsträhnen [1, 9]: +
- Amesteste von gefärbten Haarsträhnen [1, 10]: +
- Amesteste von gefärbten Haarsträhnen [1, 11]: (+)
- Amesteste von gefärbten Haarsträhnen [1, 12]: (+)
- Amesteste von gefärbten Haarsträhnen ([1]; ohne Kupplersubstanz): +
- mutagene Wirkung von Haarfärbelösungen im Amestest [2]: mutagenes Potential

Structure (SMILES): Nc1ccc(N)c(CO)c1 [2,5-Diaminobenzylalkohol, 1-Hydroxymethyl-2,5-diaminobenzol]
- Mutagenität in einigen dieser Teste [3]: mutagenes Potential
- sensibilisierende Eigenschaften [4]: sensibilisierend

Structure (SMILES): Nc1ccc(N)c(CCO)c1 [2-(2,5-Diaminophenyl)ethanol]
- Mutagenität im Mouse Lymphoma Test [5]: keinerlei Mutagenität
- Amesteste von gefärbten Haarsträhnen [1, 9]: -
- Amesteste von gefärbten Haarsträhnen [1, 10]: -
- Amesteste von gefärbten Haarsträhnen [1, 11]: -
- Amesteste von gefärbten Haarsträhnen [1, 12]: -
- Amesteste von gefärbten Haarsträhnen ([1]; ohne Kupplersubstanz): -
- mutagene Wirkung von Haarfärbelösungen im Amestest [2]: nicht mutagen
- Mutagenität im Mutagenitätstest nach Ames ([6]; in Abwesenheit von Wasserstoffperoxid): keinerlei Mutagenität
- Mutagenität im Mutagenitätstest nach Ames ([6]; in Anwesenheit von Wasserstoffperoxid): keinerlei Mutagenität
- Mutagenität im Chromosomenaberrationstest an CHO-Zellen in vitro (CA-Test) [7]: keinerlei Mutagenität
- Mutagenität im Sister-Chromatide-Exchange-Test (SCE-Test) [8]: keinerlei Mutagenität
